Legend:
[1] = biological target: T1, Human Recombinant Glucocorticoid Receptor (Homo sapiens, UniProt P04150); test: Glucocorticoid receptor binding displacement assay with 3H-dexamethasone; conditions: displacement of 2.5 nM 3H-dexamethasone; Ki from IC50 by Cheng-Prusoff; read-out: GR Binding Ki
T1 construct: This GR was a full-length steroid hormone receptor likely to be associated with heat-shock and other endogenous proteins; host or cells: baculovirus-infected insect cells
T1 sequence (P04150 1-777): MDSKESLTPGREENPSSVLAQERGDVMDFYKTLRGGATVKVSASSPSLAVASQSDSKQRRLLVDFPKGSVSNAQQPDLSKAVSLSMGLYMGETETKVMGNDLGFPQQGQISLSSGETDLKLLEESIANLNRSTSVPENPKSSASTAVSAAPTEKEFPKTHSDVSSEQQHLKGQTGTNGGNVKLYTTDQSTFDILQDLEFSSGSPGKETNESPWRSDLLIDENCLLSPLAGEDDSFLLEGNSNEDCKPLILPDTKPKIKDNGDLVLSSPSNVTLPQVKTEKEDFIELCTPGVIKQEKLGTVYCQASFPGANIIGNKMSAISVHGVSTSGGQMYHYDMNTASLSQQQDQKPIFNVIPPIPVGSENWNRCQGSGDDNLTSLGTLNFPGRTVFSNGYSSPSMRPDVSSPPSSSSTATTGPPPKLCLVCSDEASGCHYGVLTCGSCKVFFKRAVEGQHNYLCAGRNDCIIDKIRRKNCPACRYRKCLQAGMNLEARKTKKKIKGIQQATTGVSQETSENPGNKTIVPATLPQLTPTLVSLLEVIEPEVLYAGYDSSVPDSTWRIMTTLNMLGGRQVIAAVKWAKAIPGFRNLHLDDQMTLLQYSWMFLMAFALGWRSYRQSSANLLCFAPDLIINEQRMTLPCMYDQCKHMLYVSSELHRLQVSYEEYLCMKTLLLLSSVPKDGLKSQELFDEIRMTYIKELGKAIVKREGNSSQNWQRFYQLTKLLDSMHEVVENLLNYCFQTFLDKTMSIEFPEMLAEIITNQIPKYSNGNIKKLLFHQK
Experimental: The source of the receptor was recombinant baculovirus-infected insect cells. This GR was a full-length steroid hormone receptor likely to be associated with heat-shock and other endogenous proteins.
For the Primary Screen, test compounds were tested at 1 μM in duplicate. These compounds were diluted from 10 mM stock in 100% DMSO. After dilution to 100 μM, 5 μl were added to 245 μl assay buffer to obtained 2 μM compound and 2% DMSO.
For the IC50 determinations, test compounds were tested at 6 concentrations in duplicate (concentration range depends on % inhibition binding that was obtained in the Primary Screen). Test compounds were diluted from 10 mM stock in 100% DMSO. The tested solutions were prepared at 2× final assay concentration in 2% DMSO/assay buffer.
All reagents and the assay plate were kept on ice during the addition of reagents. […] After the additions, the incubation mixture was mixed and incubated for 2.5 hrs at 4° C.
After 2.5 hrs incubation, unbound counts were removed with dextran coated charcoal (DCC) as follows: 25 μl of DCC solution (10% DCC in assay buffer) was added to all wells and mixed (total volume 225 μl). The plate was centrifuged at 4000 rpm for 10 minutes at 4° C. 75 μl of the supernatants (i.e.⅓ of total volume) was carefully pipetted into an optiplate. 200 μl of scintillation cocktail were added (Microscint-40, Packard Bioscience. B.V.). The plate was vigorously shaken for approx. 10 minutes and counted on Topcount.
The IC50 values were converted to Ki (the inhibition constant) using the Cheng-Prusoff equation. Test results are presented in Tablel.
Reagents: Assay buffer: 10 mM potassium phosphate buffer pH 7.6 containing 5 mM DTT, 10 mM sodium molybdate, 100 μM EDTA and 0.1% BSA.

[2] = biological target: T2, glucocorticoid receptors (GR) in SW1353/MMTV-5 cells (Homo sapiens, UniProt P04150); test: GR functional assay using SW1353/MMTV-5 cells (MMTV-luciferase reporter); type: cell-based
T2 construct: contains endogenous glucocorticoid receptors; endogenous in cells; host or cells: SW1353/MMTV-5 (human chondrosarcoma, stably transfected with the pMAMneo-Luc reporter only)
T2 sequence (P04150 1-777): T1 sequence (P04150 1-777)
Experimental: SW1353/MMTV-5 is an adherent human chondrosarcoma cell line that contains endogenous glucocorticoid receptors. It was transfected with a plasmid (pMAMneo-Luc) encoding firefly luciferase located behind a glucocorticoid-responsive element (GRE) derived from a viral promoter (long terminal repeat of mouse mammary tumor virus). A stable cell line SW1353/MMTV-5 was selected with geneticin, which was required to maintain this plasmid.
SW1353/MMTV-5 cells were distributed in 96-well plates and incubated in medium (without geneticin) for 24 hrs (in the absence of CO2).

| SMILES | Ki [1] | Ki [2] |
| --- | --- | --- |
| Cc1cc(COC[C@]23Cc4cnn(-c5ccc(F)cc5)c4C=C2CCN(S(=O)(=O)c2ccc(N4CC[C@@H](F)C4)nc2)C3)no1 [Example 35, (R)-1-(4-Fluorophenyl)-6-[6-((R)-3-fluoropyrrolidin-1-yl)-pyridine-3-sulfonyl]-4a-(5-methyl-isoxazol-3-ylmethoxymethyl)-4,4a,5,6,7,8-hexahydro-1H-1,2,6-triaza-cyclopenta[b]naphthalene] | > 1 nM | 10 to 50 nM |
| COC[C@]12Cc3cnn(-c4ccc(F)cc4)c3C=C1CCN(S(=O)(=O)c1cncc(N3CC(O)C3)c1)C2 [Example 36, 1-{5-[(R)-1-(4-Fluorophenyl)-4a-methoxymethyl-1,4,4a,5,6,7,8-hexahydro-1,2,6-triaza-cyclopenta[b]naphthalene-6-sulfonyl]-pyridin-3-yl}-azetidin-3-ol] | 0.5 to 1 nM | > 50 nM |
| COC[C@]12Cc3cnn(-c4ccc(F)cc4)c3C=C1CCN(S(=O)(=O)c1cncc(N3CC(F)C3)c1)C2 [Example 37, (R)-6-[5-(3-Fluoroazetidin-1-yl)-pyridine-3-sulfonyl]-1-(4-fluorophenyl)-4a-methoxymethyl-4,4a,5,6,7,8-hexahydro-1H-1,2,6-triaza-cyclopenta[b]naphthalene] | 0.5 to 1 nM | < 10 nM |
| COC[C@]12Cc3cnn(-c4ccc(F)cc4)c3C=C1CCN(S(=O)(=O)c1cncc(N3CC[C@@H](O)C3)c1)C2 [Example 38, (R)-1-{5-[(R)-1-(4-Fluorophenyl)-4a-methoxymethyl-1,4,4a,5,6,7,8-hexahydro-1,2,6-triaza-cyclopenta[b]naphthalene-6-sulfonyl]pyridine-3-yl}-pyrrolidine-3-ol] | 0.5 to 1 nM | 10 to 50 nM |
| COC[C@]12Cc3cnn(-c4ccc(F)cc4)c3C=C1CCN(S(=O)(=O)c1cncc(N3CC[C@H](O)C3)c1)C2 [Example 39, (S)-1-{5-[(R)-1-(4-Fluorophenyl)-4a-methoxymethyl-1,4,4a,5,6,7,8-hexahydro-1,2,6-triaza-cyclopenta[b]naphthalene-6-sulfonyl]pyridine-3-yl}-pyrrolidine-3-ol] | 0.5 to 1 nM | > 50 nM |
| COC[C@]12Cc3cnn(-c4ccc(F)cc4)c3C=C1CCN(S(=O)(=O)c1cncc(N3CC[C@@H](F)C3)c1)C2 [Example 40, (R)-1-(4-Fluorophenyl)-6-[5-((R)-3-fluoropyrrolidin-1-yl)-pyridine-3-sulfonyl]-4a-methoxymethyl-4,4a,5,6,7,8-hexahydro-1H-1,2,6-triaza-cyclopenta[b]naphthalene] | > 1 nM | < 10 nM |
| COC[C@]12Cc3cnn(-c4ccc(F)cc4)c3C=C1CCN(S(=O)(=O)c1cncc(N3CC[C@H](F)C3)c1)C2 [Example 41, (R)-1-(4-Fluorophenyl)-6-[5-((S)-3-fluoropyrrolidin-1-yl)-pyridine-3-sulfonyl]-4a-methoxymethyl-4,4a,5,6,7,8-hexahydro-1H-1,2,6-triaza-cyclopenta[b]naphthalene] | 0.5 to 1 nM | < 10 nM |
| COC[C@]12Cc3cnn(-c4ccc(F)cc4)c3C=C1CCN(S(=O)(=O)c1ccnc(N3CCCC3)c1)C2 [Example 42, (R)-1-(4-Fluorophenyl)-4a-methoxymethyl-6-(2-pyrrolidin-1-yl-pyridine-4-sulfonyl)-4,4a,5,6,7,8-hexahydro-1H-1,2,6-triaza-cyclopenta[b]naphthalene] | > 1 nM | < 10 nM |
| COC[C@]12Cc3cnn(-c4ccc(F)cc4)c3C=C1CCN(S(=O)(=O)c1ccnc(N3CC[C@@H](O)C3)c1)C2 [Example 43, (R)-1-{4-[(R)-1-(4-Fluorophenyl)-4a-methoxymethyl-1,4,4a,5,6,7,8-hexahydro-1,2,6-triaza-cyclopenta[b]naphthalene-6-sulfonyl]-pyridin-2-yl}-pyrrolidin-3-ol] | > 1 nM | > 50 nM |
| COC[C@]12Cc3cnn(-c4ccc(F)cc4)c3C=C1CCN(S(=O)(=O)c1ccnc(N3CC[C@H](O)C3)c1)C2 [Example 44, (S)-1-{4-[(R)-1-(4-Fluorophenyl)-4a-methoxymethyl-1,4,4a,5,6,7,8-hexahydro-1,2,6-triaza-cyclopenta[b]naphthalene-6-sulfonyl]-pyridin-2-yl}-pyrrolidin-3-ol] | > 1 nM | > 50 nM |
| CN(CCO)C[C@]12Cc3cnn(-c4ccc(F)cc4)c3C=C1CCN(S(=O)(=O)c1ccc(N3CCOCC3)nc1)C2 [Example 45, 2-{[(S)-1-(4-Fluorophenyl)-6-[6-morpholin-4-yl-pyridine-3-sulfonyl)-1,4,5,6,7,8-hexahydro-1,2,6-triaza-cyclopenta[b]naphthalene-4a-ylmethyl]-methyl-amino}-ethanol] | > 1 nM | 10 to 50 nM |
| O=S(=O)(c1ccc(N2CC[C@@H](F)C2)nc1)N1CCC2=Cc3c(cnn3-c3ccc(F)cc3)C[C@]2(CN2CC[C@H](O)C2)C1 [Example 47, (S)-1-{(S)-1-(4-Fluorophenyl)-6-[6-((R)-3-fluoro-pyrrolidin-1-yl)-pyridine-3-sulfonyl]-1,4,5,6,7,8-hexahydro-1,2,6-triaza-cyclopenta[b]naphthalene-4a-ylmethyl}-pyrrolidin-3-ol] | > 1 nM | > 50 nM |
| CCOC(=O)[C@]12Cc3cnn(-c4ccc(F)cc4)c3C=C1CCN(S(=O)(=O)c1ccc(N3CCOCC3)nc1)C2 [Example 48, (R)-1-(4-Fluorophenyl)-6-(6-morpholin-4-yl-pyridine-3-sulfonyl]-1,4,5,6,7,8-hexahydro-1,2,6-triaza-cyclopenta[b]naphthalene-4a-carboxylic acid ethyl ester] | 0.5 to 1 nM | 10 to 50 nM |
| CC(C)OC(=O)[C@]12Cc3cnn(-c4ccc(F)cc4)c3C=C1CCN(S(=O)(=O)c1ccc(N3CCOCC3)nc1)C2 [Example 49, (R)-1-(4-Fluorophenyl)-6-(6-morpholin-4-yl-pyridine-3-sulfonyl]-1,4,5,6,7,8-hexahydro-1,2,6-triaza-cyclopenta[b]naphthalene-4a-carboxylic acid isopropyl ester] | < 0.5 nM | 10 to 50 nM |
| O=C(OC1CCC1)[C@]12Cc3cnn(-c4ccc(F)cc4)c3C=C1CCN(S(=O)(=O)c1ccc(N3CCOCC3)nc1)C2 [Example 50, (R)-1-(4-Fluorophenyl)-6-(6-morpholin-4-yl-pyridine-3-sulfonyl]-1,4,5,6,7,8-hexahydro-1,2,6-triaza-cyclopenta[b]naphthalene-4a-carboxylic acid cyclobutyl ester] | 0.5 to 1 nM | < 10 nM |
| O=C(OCC1CC1)[C@]12Cc3cnn(-c4ccc(F)cc4)c3C=C1CCN(S(=O)(=O)c1ccc(N3CCOCC3)nc1)C2 [Example 51, (R)-1-(4-Fluorophenyl)-6-(6-morpholin-4-yl-pyridine-3-sulfonyl]-1,4,5,6,7,8-hexahydro-1,2,6-triaza-cyclopenta[b]naphthalene-4a-carboxylic acid cyclopropylmethyl ester] | 0.5 to 1 nM | < 10 nM |
| O=C(OCC1CCC1)[C@]12Cc3cnn(-c4ccc(F)cc4)c3C=C1CCN(S(=O)(=O)c1ccc(N3CCOCC3)nc1)C2 [Example 52, (R)-1-(4-Fluorophenyl)-6-(6-morpholin-4-yl-pyridine-3-sulfonyl]-1,4,5,6,7,8-hexahydro-1,2,6-triaza-cyclopenta[b]naphthalene-4a-carboxylic acid cyclobutylmethyl ester] | 0.5 to 1 nM | < 10 nM |

Reference: patent US8598154B2 (Corcept Therapeutics, Inc., priority 2010, dated 2013)
